PubChem BioAssay (NCI)
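Where inhibition never reached the appropriate level, the endpoint shown equals the highest concentration tested. Otherwise, values were interpolated linearly from a five-concentration, 48-hour dose response in 96-well plates. TGI: total growth inhibition.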

Assays:
Test in all cases: NCI tumour cell line growth inhibition, 48 h
[1] = tested on: COLO 205 colon
[2] = tested on: OVCAR-8 ovarian
[3] = tested on: OVCAR-5 ovarian
[4] = tested on: CAKI-1 renal
[5] = tested on: MDA-MB-231 breast
[6] = tested on: HCT-116 colon
[7] = tested on: HS 578T breast
[8] = tested on: M14 melanoma
[9] = tested on: EKVX NSCLC
[10] = tested on: OVCAR-3 ovarian
[11] = tested on: TK-10 renal
[12] = tested on: RPMI-8226 leukemia
[13] = tested on: MCF7 breast
[14] = tested on: SF-539 CNS
[15] = tested on: HT29 colon
[16] = tested on: NCI-H226 lung
[17] = tested on: IGROV1 ovarian
[18] = tested on: HL-60(TB) leukemia
[19] = tested on: HCT-15 colon
[20] = tested on: NCI-H522 lung
[21] = tested on: KM12 colon
[22] = tested on: SK-MEL-5 melanoma
[23] = tested on: SR leukemia
[24] = tested on: K-562 leukemia
[25] = tested on: U251 CNS
[26] = tested on: SK-MEL-2 melanoma
[27] = tested on: SN12C renal
[28] = tested on: HOP-92 NSCLC
[29] = tested on: UO-31 renal
[30] = tested on: SK-OV-3 ovarian
[31] = tested on: HCC-2998 colon
[32] = tested on: SNB-75 CNS
[33] = tested on: SNB-19 CNS
[34] = tested on: OVCAR-4 ovarian
[35] = tested on: A498 renal
[36] = tested on: MOLT-4 leukemia
[37] = tested on: NCI-H23 lung
[38] = tested on: LOX IMVI melanoma
[39] = tested on: SK-MEL-28 melanoma
[40] = tested on: MDA-MB-435
[41] = tested on: T-47D breast
[42] = tested on: SF-295 CNS
[43] = tested on: UACC-62 melanoma
[44] = tested on: NCI-H460 lung
[45] = tested on: SF-268 CNS
[46] = tested on: DU-145 prostate
[47] = tested on: RXF 393 renal
[48] = tested on: A549 NSCLC
[49] = tested on: CCRF-CEM leukemia
[50] = tested on: PC-3 prostate
[51] = tested on: 786-0 renal
[52] = tested on: BT-549 breast
[53] = tested on: ACHN renal
[54] = tested on: HOP-62 NSCLC
[55] = tested on: NCI/ADR-RES ovarian
[56] = tested on: MDA-N
[57] = tested on: SW-620 colon
[58] = tested on: UACC-257 melanoma

SMILES: CCOC(=O)C#Cc1ccc([N+](=O)[O-])cc1
- TGI [1]: 3.09 µM
- TGI [2]: 10.5 µM
- TGI [3]: 2.83 µM
- TGI [4]: 3.47 µM
- TGI [5]: 4.64 µM
- TGI [6]: 3.03 µM
- TGI [7]: 21.8 µM
- TGI [8]: 5.34 µM
- TGI [9]: 4.71 µM
- TGI [10]: 3.13 µM
- TGI [11]: 27.4 µM
- TGI [12]: 4.68 µM
- TGI [13]: 2.49 µM
- TGI [14]: 6.69 µM
- TGI [15]: 2.94 µM
- TGI [16]: 7.78 µM
- TGI [17]: 4.42 µM
- TGI [18]: 4.1 µM
- TGI [19]: 4.33 µM
- TGI [20]: 3.09 µM
- TGI [21]: 3.81 µM
- TGI [22]: 9.63 µM
- TGI [23]: 5.27 µM
- TGI [24]: 11.9 µM
- TGI [25]: 3 µM
- TGI [26]: 11.6 µM
- TGI [27]: 3.39 µM
- TGI [28]: 3.47 µM
- TGI [29]: 3.15 µM
- TGI [30]: 25.6 µM
- TGI [31]: 28.7 µM
- TGI [32]: 7.88 µM
- TGI [33]: 25.7 µM
- TGI [34]: 23.3 µM
- TGI [35]: 32 µM
- TGI [36]: 5.22 µM
- TGI [37]: 7.55 µM
- TGI [38]: 2.77 µM
- TGI [39]: 23.4 µM
- TGI [40]: 10.8 µM
- TGI [41]: 4.05 µM
- TGI [42]: 25.6 µM
- TGI [43]: 4.05 µM
- TGI [44]: 29.2 µM
- TGI [45]: 8.62 µM
- TGI [46]: 3.12 µM
- TGI [47]: 2.63 µM
- TGI [48]: 27 µM
- TGI [49]: 4.05 µM
- TGI [50]: 8.54 µM
- TGI [51]: 3.41 µM
- TGI [52]: 4.76 µM
- TGI [53]: 10.2 µM
- TGI [54]: 11.3 µM
- TGI [55]: 79.5 µM
- TGI [56]: 10.5 µM
- TGI [57]: 7.43 µM
- TGI [58]: 10.8 µM

SMILES: CSc1ccc(/C=C2\N=C(c3ccccc3)N(c3nc4c(Cl)cc(Cl)cc4s3)C2=O)cc1
- TGI [1]: > 100 µM
- TGI [2]: > 100 µM
- TGI [3]: > 100 µM
- TGI [4]: > 100 µM
- TGI [5]: 62.5 µM
- TGI [6]: 41.5 µM
- TGI [7]: 64.6 µM
- TGI [8]: 62.9 µM
- TGI [9]: 49.9 µM
- TGI [10]: 40 µM
- TGI [11]: > 100 µM
- TGI [12]: > 100 µM
- TGI [13]: > 100 µM
- TGI [14]: > 100 µM
- TGI [15]: 46.4 µM
- TGI [17]: > 100 µM
- TGI [18]: 69.7 µM
- TGI [19]: > 100 µM
- TGI [21]: 88.6 µM
- TGI [22]: 34.9 µM
- TGI [23]: 50.3 µM
- TGI [24]: > 100 µM
- TGI [25]: 37.3 µM
- TGI [26]: 41.4 µM
- TGI [27]: 56.3 µM
- TGI [28]: > 100 µM
- TGI [29]: 47.9 µM
- TGI [30]: 84.9 µM
- TGI [31]: 94 µM
- TGI [32]: 62 µM
- TGI [33]: > 100 µM
- TGI [34]: 58.4 µM
- TGI [35]: 40.8 µM
- TGI [36]: 49.5 µM
- TGI [38]: 82.1 µM
- TGI [39]: > 100 µM
- TGI [40]: 43.2 µM
- TGI [41]: 98.4 µM
- TGI [42]: 79.7 µM
- TGI [43]: 73.1 µM
- TGI [44]: > 100 µM
- TGI [45]: 86.3 µM
- TGI [46]: 93.7 µM
- TGI [47]: 67.5 µM
- TGI [48]: 53.4 µM
- TGI [49]: 43.3 µM
- TGI [50]: 43.3 µM
- TGI [51]: > 100 µM
- TGI [52]: 63.5 µM
- TGI [53]: 68.5 µM
- TGI [54]: 39.7 µM
- TGI [55]: 68.2 µM
- TGI [56]: 36.1 µM
- TGI [57]: > 100 µM
- TGI [58]: > 100 µM
